Data published in patent US8236785B2, “Method of treating or preventing infertility in a female mammal and pharmaceutical kit for use in such method” (Pantarhei Bioscience B.V., priority 2007, dated 2012).

How the values were obtained:
ERα receptor = target: T1, ERα receptor (Homo sapiens, UniProt P03372); assay: Estrogen receptor affinity; assay type: binding
T1 sequence (P03372 1-595): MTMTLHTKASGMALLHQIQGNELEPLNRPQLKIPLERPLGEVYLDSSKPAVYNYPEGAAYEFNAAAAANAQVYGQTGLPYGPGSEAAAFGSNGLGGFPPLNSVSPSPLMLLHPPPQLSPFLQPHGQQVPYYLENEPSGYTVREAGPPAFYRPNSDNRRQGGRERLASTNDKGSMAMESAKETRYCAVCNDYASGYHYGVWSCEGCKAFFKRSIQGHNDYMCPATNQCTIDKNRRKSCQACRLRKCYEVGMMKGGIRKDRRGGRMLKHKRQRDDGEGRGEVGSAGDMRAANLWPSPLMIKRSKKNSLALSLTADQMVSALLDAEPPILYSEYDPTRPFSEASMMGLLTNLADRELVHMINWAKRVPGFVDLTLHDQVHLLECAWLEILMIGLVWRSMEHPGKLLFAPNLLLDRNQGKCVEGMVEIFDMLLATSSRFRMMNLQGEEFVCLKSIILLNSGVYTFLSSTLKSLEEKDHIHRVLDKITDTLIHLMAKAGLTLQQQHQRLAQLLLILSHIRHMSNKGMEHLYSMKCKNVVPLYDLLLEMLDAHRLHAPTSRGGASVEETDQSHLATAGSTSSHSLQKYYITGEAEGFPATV

premature LH-surge [1] = assay: Open-label uncontrolled clinical trial of premature LH-surge prevention in women undergoing COH/IVF; assay type: in vivo; conditions: daily oral 40 mg
Protocol: An open-label, uncontrolled, single centre clinical trial is performed to investigate the efficacy, safety and tolerability of premature LH-surge prevention in 10 women undergoing IVF treatment for infertility by Controlled Ovarian Hyperstimulation (COH), using a daily oral dosage of 40 mg estetrol (E4) from day 6 of FSH treatment up to and including the day of hCG administration to resume meiosis and induce lutëinisation. Oocytes are retrieved 30-38 hours after hCG administration, fertilised in vitro and two days later no more than two embryos are transferred to the uterus of the patient. Standard luteal support is prescribed.
Ultrasonographic monitoring of follicle growth and endometrial thickness are performed during this treatment procedure including extensive and repeated hormonal analysis and measurement of E4 levels extending into the luteal phase after embryo transfer.

ERβ receptor = ERβ receptor (Homo sapiens, UniProt Q92731); assay: Estrogen receptor affinity; assay type: binding
premature LH-surge [2] = assay: Randomised controlled dose-finding clinical trial of premature LH-surge prevention in COH/IVF, E4 versus ganirelix; assay type: in vivo, women
Protocol: An open-label, randomised, controlled, dose-finding, multi-centre clinical trial is performed to investigate and compare the efficacy, safety and tolerability of premature LH-surge prevention in women undergoing COH/IVF using either E4 in an oral dosage of 1, 5, 10, 20, 40 or 80 mg per day or a daily subcutaneous injection of 0.25 mg ganirelix. Group size is 30 women, so in total 210 patients participate in the trial. E4/ganirelix treatment is started on day 6 of FSH treatment up to and including the day of hCG administration. Further procedures are similar to example 1.

ERβ receptor, sequence (Q92731 whole entry): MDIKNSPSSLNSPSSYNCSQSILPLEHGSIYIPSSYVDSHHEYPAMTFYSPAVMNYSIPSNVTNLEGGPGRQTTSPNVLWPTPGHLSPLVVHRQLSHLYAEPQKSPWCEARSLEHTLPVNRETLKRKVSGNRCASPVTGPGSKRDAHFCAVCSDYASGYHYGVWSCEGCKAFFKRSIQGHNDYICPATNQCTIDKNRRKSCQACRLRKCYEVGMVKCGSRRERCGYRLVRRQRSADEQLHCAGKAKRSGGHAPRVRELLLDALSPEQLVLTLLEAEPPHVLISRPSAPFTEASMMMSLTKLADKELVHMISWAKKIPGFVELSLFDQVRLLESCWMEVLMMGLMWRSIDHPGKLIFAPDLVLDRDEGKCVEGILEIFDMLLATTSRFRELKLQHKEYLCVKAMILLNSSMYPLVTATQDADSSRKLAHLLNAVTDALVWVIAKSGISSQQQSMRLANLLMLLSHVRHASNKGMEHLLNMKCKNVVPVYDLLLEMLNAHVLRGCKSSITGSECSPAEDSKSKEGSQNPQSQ

affinity for the ERα receptor (ERα receptor): relatively high affinity | affinity for the ERβ receptor (ERβ receptor): relatively low affinity
Compound: C[C@]12CC[C@@H]3c4ccc(O)cc4CC[C@H]3[C@@H]1[C@@H](O)[C@@H](O)[C@@H]2O [estetrol, 1,3,5 (10)-estratrien-3,15α,16α,17β-tetrol]
tolerability / side-effects (premature LH-surge [1]): well tolerated without significant side-effects | prevention of a premature LH-surge (premature LH-surge [1]; from day 6 of FSH treatment up to and including day of hCG, 10 women): efficacious in preventing a premature LH-surge | vital pregnancies (premature LH-surge [1]; COH/IVF with embryo transfer): Vital pregnancies occur | prevention of premature LH-surges compared with ganirelix (premature LH-surge [2]; higher oral dosages vs daily subcutaneous 0.25 mg ganirelix): equally effective to parenteral ganirelix | prevention of premature LH-surges (premature LH-surge [2]; oral 1, 5, 10, 20, 40 or 80 mg per day): dose dependent prevention of premature LH-surges | tolerability / side-effects (premature LH-surge [2]; oral 1-80 mg per day): well tolerated and without significant side-effects | vital pregnancy rates compared with ganirelix (premature LH-surge [2]; oral E4 vs daily subcutaneous 0.25 mg ganirelix): trend to be superior to ganirelix treated patients
